Measured values taken from US20070026080A1, “Manufacturing process for tigecycline” (Wyeth, priority 2005, published 2007).
“And” between values parts separate entries of the source, which are not always exact repeats. Identical values can stand only once.

Assay: Strength and degradation profile of tigecycline 20 mg/mL bulk solutions by reversed phase HPLC (effect of temperature, time, pH, dissolved oxygen; Runs A to O)
Format: physicochemical
Settings: 20 mg/mL
Protocol: The contents of the sample vials are dissolved in diluent. The sample solution is diluted, if necessary, and chromatographed on a reversed phase column using gradient elution. Impurities are determined by comparing the impurity peak areas in the sample preparation chromatogram to the average area of tigecycline peaks in the standard preparation chromatograms obtained concomitantly.
Chromatographic Column—Length about 15 cm, inside diameter about 4.6 mm, packed with Inertsil ODS2, 5 μm size particles or equivalent.
Detector—Ultraviolet spectrophotometric detector capable of operating at 248 nm with a sensitivity of about 0.5 absorbance units full scale.
The results of additional studies to investigate the effect of processing parameters such as temperature, time, and dissolved oxygen content on the purity profile of tigecycline solutions using the following materials, methods and procedures are presented in Tables A to O.
The experiments were run in plastic glove bags under normal laboratory light conditions. Plastic glove boxes will be used to control the headspace of the beakers. The batch size was 200 mL. • 1. Prepare the glove bag with a mixture of nitrogen and air to achieve an oxygen level in the solution as per the design. • 2. Place the jacketed beaker on the magnetic stirrer. Connect it to the cooler. Set the cooler to the desired set point. • 3. Add 200 mL of SWFI in to the beaker. Allow equilibrating. Measure the temperature and oxygen content. When it reaches the desired condition, add accurately weighed API and mix until dissolved. If necessary use spatula to aid dissolution. For pH adjustments, use 4 mL of either 0.1N NaOH or 0.1N HCl and 196 mL of WFI for manufacture. • 4. After complete dissolution, Transfer about 5.5 mL of Solution in vials and stopper them. These vials will be stoppered at the appropriate headspace conditions. Place the vials in appropriate temperature conditions. • 5. Sample the vials at 1, 4, 8, 10, 12 and 24 hours. Send the samples for analysis. Freeze the 10, 12 and 24 samples at −20° C. for analysis the following day. • 6. Measure pH and record color of the solution at each time point. Results
The 1-hour samples were taken directly from the beakers. Samples for later time points were collected in stoppered vials processed in the atmosphere of the bag in order to simulate the headspace conditions then placed in water baths or refrigerator to maintain there respective temperature conditions. This was done to maintain safety in the lab. Disposable plastic glove bags require constant flow of a mixture of nitrogen and air to maintain headspace oxygen level that will result in the desired dissolved oxygen (DO) content in the sample. The pH of samples was measured at each sample points.
Strength and degradation profile was analyzed by HPLC as described above. […] Degradation was slightly higher at higher temperature condition.

[1] = Run #A, 2° C., pH 8.2, Oxygen 2.0 mg/L, hours 1,4,8,10,12,24 at r6-r11
[2] = Run #A, 2° C., pH 8.2, Oxygen 2.0 mg/L, hours 1,4,8,10,12,24 at r17-r22
[3] = Run #B, 8° C., pH 8.2, Oxygen 2.0 mg/L, hours 1,4,8,10,12,24 at r6-r11, 1 hours
[4] = Run #B, 8° C., pH 8.2, Oxygen 2.0 mg/L, hours 1,4,8,10,12,24 at r6-r11, 4 hours
[5] = Run #B, 8° C., pH 8.2, Oxygen 2.0 mg/L, hours 1,4,8,10,12,24 at r6-r11, 8 hours
[6] = Run #B, 8° C., pH 8.2, Oxygen 2.0 mg/L, hours 1,4,8,10,12,24 at r6-r11, 10 hours
[7] = Run #B, 8° C., pH 8.2, Oxygen 2.0 mg/L, hours 1,4,8,10,12,24 at r6-r11, 12 hours
[8] = Run #B, 8° C., pH 8.2, Oxygen 2.0 mg/L, hours 1,4,8,10,12,24 at r6-r11, 24 hours
[9] = Run #B, 8° C., pH 8.2, Oxygen 2.0 mg/L, hours 1,4,8,10,12,24 at r17-r22, 1 hours
[10] = Run #B, 8° C., pH 8.2, Oxygen 2.0 mg/L, hours 1,4,8,10,12,24 at r17-r22, 4 hours
[11] = Run #B, 8° C., pH 8.2, Oxygen 2.0 mg/L, hours 1,4,8,10,12,24 at r17-r22, 8 hours
[12] = Run #B, 8° C., pH 8.2, Oxygen 2.0 mg/L, hours 1,4,8,10,12,24 at r17-r22, 10 hours
[13] = Run #B, 8° C., pH 8.2, Oxygen 2.0 mg/L, hours 1,4,8,10,12,24 at r17-r22, 12 hours
[14] = Run #B, 8° C., pH 8.2, Oxygen 2.0 mg/L, hours 1,4,8,10,12,24 at r17-r22, 24 hours
[15] = Run #C, 2° C., pH 7.7, Oxygen 2 mg/L, hours 1,4,8,10,12,24 at r6-r11
[16] = Run #C, 2° C., pH 7.7, Oxygen 2 mg/L, hours 1,4,8,10,12,24 at r6-r11, 1 h hold time
[17] = Run #C, 2° C., pH 7.7, Oxygen 2 mg/L, hours 1,4,8,10,12,24 at r6-r11, 4 h hold time
[18] = Run #C, 2° C., pH 7.7, Oxygen 2 mg/L, hours 1,4,8,10,12,24 at r6-r11, 10 h hold time
[19] = Run #C, 2° C., pH 7.7, Oxygen 2 mg/L, hours 1,4,8,10,12,24 at r6-r11, 12 h hold time
[20] = Run #C, 2° C., pH 7.7, Oxygen 2 mg/L, hours 1,4,8,10,12,24 at r6-r11, 24 h hold time
[21] = Run #C, 2° C., pH 7.7, Oxygen 2 mg/L, hours 1,4,8,10,12,24 at r17-r22, 1 h hold time
[22] = Run #C, 2° C., pH 7.7, Oxygen 2 mg/L, hours 1,4,8,10,12,24 at r17-r22, 4 h hold time
[23] = Run #C, 2° C., pH 7.7, Oxygen 2 mg/L, hours 1,4,8,10,12,24 at r17-r22, 8 h hold time
[24] = Run #C, 2° C., pH 7.7, Oxygen 2 mg/L, hours 1,4,8,10,12,24 at r17-r22, 10 h hold time
[25] = Run #C, 2° C., pH 7.7, Oxygen 2 mg/L, hours 1,4,8,10,12,24 at r17-r22, 24 h hold time
[26] = Run #D, 8° C., pH 7.7, Oxygen 2.0 mg/L, hours 1,4,8,10,12,24 at r6-r11, after 1 hours

## CN(C)c1cc(NC(=O)CNC(C)(C)C)c(O)c2c1C[C@H]1C[C@H]3[C@H](N(C)C)C(O)=C(C(N)=O)C(=O)[C@@]3(O)C(O)=C1C2=O [Tigecycline]
[1]
  RRT 0.58: 0.06% and 0.07%
  RRT 0.64 9-Amino: BRL (BRL means below reporting limit (meaning less than 0.05% of tigecycline peak))
  RRT 0.74 Epimer: 0.26% and 0.23% and 0.18% and 0.20% and 0.19% and 0.25%
  Strength: 19.901 mg/mL and 19.504 mg/mL and 19.639 mg/mL and 19.610 mg/mL and 19.473 mg/mL and 19.806 mg/mL
[2]
  RRT 1.12: BRL (BRL means below reporting limit (meaning less than 0.05% of tigecycline peak))
  RRT 1.45: 0.06% and 0.08% and 0.07% and 0.09%
  RRT 1.58: BRL (BRL means below reporting limit (meaning less than 0.05% of tigecycline peak))
  RRT 1.64 Mino: 0.10% and 0.11%
  RRT 1.85 MW = 597: 0.06% and 0.08% and 0.07% and 0.14%
  Total: 0.47% and 0.76% and 0.86% and 1.26% and 1.40% and 1.86%
[3]
  RRT 0.55 MW = 583: 0.11%
  Strength: 19.149 mg/mL
[4]
  RRT 0.55 MW = 583: 0.20%
  Strength: 19.046 mg/mL
[5]
  RRT 0.55 MW = 583: 0.27%
  Strength: 18.795 mg/mL
[6]
  RRT 0.55 MW = 583: 0.32%
  Strength: 19.144 mg/mL
[7]
  RRT 0.55 MW = 583: 0.29%
  Strength: 18.668 mg/mL
[8]
  RRT 0.55 MW = 583: 0.42%
  Strength: 17.784 mg/mL
[9]
  RRT 0.74 Epimer: 0.20%
  RRT 1.64 Mino: 0.10%
  RRT 1.67 MW = 556: 0.14%
  RRT 1.85 MW = 597: 0.08%
  Total: 0.75%
[10]
  RRT 0.74 Epimer: 0.19%
  RRT 1.64 Mino: 0.05%
  RRT 1.67 MW = 556: 0.25%
  RRT 1.85 MW = 597: 0.07%
  Total: 1.12%
[11]
  RRT 0.74 Epimer: 0.23%
  RRT 1.64 Mino: 0.07%
  RRT 1.67 MW = 556: 0.35%
  Total: 1.85%
[12]
  RRT 0.74 Epimer: 0.22%
  RRT 1.64 Mino: 0.11%
  RRT 1.67 MW = 556: 0.29%
  RRT 1.85 MW = 597: 0.09%
  Total: 2.38%
[13]
  RRT 0.74 Epimer: 0.24%
  RRT 1.64 Mino: 0.09%
  RRT 1.67 MW = 556: 0.23%
  Total: 2.61%
[14]
  RRT 1.67 MW = 556: 0.50%
  RRT 1.85 MW = 597: 0.11%
  Total: 5.36%
[15]
  RRT 0.12 MW = 633: BRL (BRL means below reporting limit (meaning less than 0.05% of tigecycline peak))
  RRT 0.64 9-Amino: BRL (BRL means below reporting limit (meaning less than 0.05% of tigecycline peak))
[16]
  RRT 0.58: 0.08%
  RRT 0.74 Epimer: 0.20%
  Strength: 19.339 mg/mL
[17]
  RRT 0.58: 0.06%
  RRT 0.74 Epimer: 0.19%
  Strength: 19.246 mg/mL
Run #C, 2° C., pH 7.7, Oxygen 2 mg/L, hours 1,4,8,10,12,24 at r6-r11, 8 h hold time
  Strength: 19.031 mg/mL
[18]
  RRT 0.74 Epimer: 0.27%
  Strength: 19.415 mg/mL
[19]
  RRT 0.58: 0.07%
  RRT 0.74 Epimer: 0.30%
  Strength: 19.048 mg/mL
[20]
  RRT 0.58: 0.05%
  RRT 0.74 Epimer: 0.21%
  Strength: 19.226 mg/mL
Run #C, 2° C., pH 7.7, Oxygen 2 mg/L, hours 1,4,8,10,12,24 at r17-r22
  RRT 1.12: BRL (BRL means below reporting limit (meaning less than 0.05% of tigecycline peak))
[21]
  RRT 1.45: 0.07%
  RRT 1.64 Mino: 0.10%
  RRT 1.85 MW = 597: 0.06%
  Total: 0.59%
[22]
  RRT 1.64 Mino: 0.09%
  Total: 0.60%
[23]
  RRT 1.45: 0.13%
  RRT 1.64 Mino: 0.11%
  RRT 1.85 MW = 597: 0.07%
  Total: 0.87%
[24]
  RRT 1.85 MW = 597: 0.08%
  Total: 1.20%
Run #C, 2° C., pH 7.7, Oxygen 2 mg/L, hours 1,4,8,10,12,24 at r17-r22, 12 h hold time
  Total: 1.38%
[25]
  RRT 1.45: 0.06%
  Total: 1.52%
Run #D, 8° C., pH 7.7, Oxygen 2.0 mg/L, hours 1,4,8,10,12,24 at r6-r11
  RRT 0.64 9-Amino: BRL (BRL means below reporting limit (meaning less than 0.05% of tigecycline peak))
[26]
  RRT 0.55 MW = 583: 0.08%
  RRT 0.74 Epimer: 0.19%
